Source: PMC6065180, “An allosteric propofol-binding site in kinesin disrupts kinesin-mediated processive movement on microtubules” (The Journal of Biological Chemistry, 2018)

What was measured:
KIF3CC = biological target: T1, KIF3CC (Mus musculus, UniProt O35066); assay: Qdot single-molecule TIRF motility; format: biochemical; conditions: 10 μM AziPm; 1 mM MgATP, X-rhodamine microtubules, paclitaxel, 5% DMSO, pH 6.9, 25 °C
T1 construct: gene Kif3c; KIF3C Met1-Leu396, C-terminal EB1 dimerization motif, TEV site and His8 tag kept; E. coli; engineered homodimer
T1 sequence (O35066 1-396): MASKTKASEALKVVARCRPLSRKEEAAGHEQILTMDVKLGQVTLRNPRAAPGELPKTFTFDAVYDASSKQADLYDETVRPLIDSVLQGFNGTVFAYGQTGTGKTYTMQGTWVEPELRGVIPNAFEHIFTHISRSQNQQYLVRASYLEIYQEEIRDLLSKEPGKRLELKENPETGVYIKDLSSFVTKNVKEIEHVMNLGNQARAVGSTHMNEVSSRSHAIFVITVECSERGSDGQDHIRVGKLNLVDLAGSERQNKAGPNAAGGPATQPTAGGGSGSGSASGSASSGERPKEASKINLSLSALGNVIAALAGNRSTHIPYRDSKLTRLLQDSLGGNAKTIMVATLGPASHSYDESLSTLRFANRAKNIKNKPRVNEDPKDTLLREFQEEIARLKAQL

KIF3BB = biological target: T2, KIF3BB (Mus musculus, UniProt Q61771); assay: Qdot single-molecule TIRF motility; format: biochemical; conditions: 10 μM AziPm; 1 mM MgATP, X-rhodamine microtubules, paclitaxel, 5% DMSO, pH 6.9, 25 °C
T2 construct: gene Kif3b; KIF3B Met1-Leu369, C-terminal EB1 dimerization motif, TEV site and His8 tag kept; E. coli; engineered homodimer, Mr 48,011 per chain
T2 sequence (Q61771 1-369): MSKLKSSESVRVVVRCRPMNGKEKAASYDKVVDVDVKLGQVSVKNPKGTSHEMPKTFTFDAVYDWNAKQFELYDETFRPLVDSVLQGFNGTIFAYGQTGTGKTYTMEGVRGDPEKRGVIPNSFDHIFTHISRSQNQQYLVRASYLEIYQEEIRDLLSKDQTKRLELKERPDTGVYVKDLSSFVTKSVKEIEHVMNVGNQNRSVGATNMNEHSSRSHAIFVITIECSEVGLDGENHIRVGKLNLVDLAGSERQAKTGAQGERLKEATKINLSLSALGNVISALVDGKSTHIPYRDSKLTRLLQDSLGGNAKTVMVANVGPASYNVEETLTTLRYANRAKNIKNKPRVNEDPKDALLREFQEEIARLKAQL

CC(C)c1ccc(C2(C(F)(F)F)N=N2)cc1O [AziPm, meta-azipropofol]
% decrease in run length at 10 μM (KIF3CC): ~ 35% | % decrease in run length at 10 μM (KIF3BB): ~ 50%
